The supplement of paper PMC10331698
± gives the standard deviation of the averaged measurements.

Tests used:
Assay in all cases: level (log10 ratio to DMSO vehicle control); higher = higher biomarker level / cell amount than vehicle control
Details in all cases: in DMSO
[1] = compound: FC(F)(F)C(F)(F)C(F)(F)C(F)(F)C(F)(F)C(F)(F)CC1CO1 [3-(Perfluorohexyl)-1,2-epoxypropane]
Protocol: (§1)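 BioMAP Diversity Plus panel of 12 human primary cell co-culture systems (3C, 4H, LPS, SAg, BT, BF4T, BE3C, CASM3C, HDF3CGF, KF3CT, MyoF, Mphg). Compounds were added 1 h before stimulation and left for 24 h (MyoF 48 h; BT 72 h for soluble read-outs or 6 d for IgG). Biomarkers were read by ELISA, cytotoxicity by SRB, PBMC viability and proliferation by Alamar Blue. Each well value was divided by the mean of 8 DMSO control wells on the same plate and log10 transformed; duplicate blinded samples were tested at 4 concentrations.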

Heptafluorobutyl iodide = compound: FC(F)(F)C(F)(F)C(F)(F)CI [Heptafluorobutyl iodide]
Protocol: as §1

[2] = compound: FC(F)(F)C(F)(F)CNCC(F)(F)C(F)(F)F [Bis(1H,1H-perfluoropropyl)amine]
Protocol: as §1

Octafluoroadipamide = compound: NC(=O)C(F)(F)C(F)(F)C(F)(F)C(F)(F)C(N)=O [Octafluoroadipamide]
Protocol: as §1

[3] = compound: NC(=O)C(F)(F)C(F)(F)C(F)(F)C(F)F
Protocol: as §1

[4] = compound: O=C(O)C(F)(F)C(F)(F)C(F)(F)C(F)(F)C(F)(F)C(F)(F)C(F)(F)C(F)(F)C(F)(F)C(F)F [11-H-Perfluoroundecanoic acid]
Protocol: as §1

[5] = compound: O=S(=O)(Cl)C(F)(F)C(F)(F)C(F)(F)C(F)(F)C(F)(F)C(F)(F)C(F)(F)C(F)(F)F [Perfluoro-1-octanesulfonyl chloride]
Protocol: as §1

Test System | level (log10) ([1]; 6700 nM) | level (log10) ([1]; 20000 nM) | level (log10) ([1]; 60000 nM) | level (log10) (Heptafluorobutyl iodide; 6700 nM) | level (log10) (Heptafluorobutyl iodide; 20000 nM) | level (log10) (Heptafluorobutyl iodide; 60000 nM) | level (log10) ([2]; 6700 nM) | level (log10) ([2]; 20000 nM) | level (log10) ([2]; 60000 nM) | level (log10) (Octafluoroadipamide; 6700 nM) | level (log10) (Octafluoroadipamide; 20000 nM) | level (log10) (Octafluoroadipamide; 60000 nM) | level (log10) ([3]; 6700 nM) | level (log10) ([3]; 20000 nM) | level (log10) ([3]; 60000 nM) | level (log10) ([4]; 6700 nM) | level (log10) ([4]; 20000 nM) | level (log10) ([5]; 6700 nM) | level (log10) ([5]; 20000 nM) | level (log10) ([5]; 60000 nM)
3C:CD54/ICAM-1 | -0.0115 ± 0.00071 | -0.0275 ± 0.015 | -0.015 ± 0.011 | -0.0075 ± 0.015 | -0.0035 ± 0.0092 | -0.0055 ± 0.005 | 0 ± 0.016 | 0.001 ± 0.0085 | 0.006 ± 0.0014 | -0.0125 ± 0.0021 | -0.019 ± 0.0071 | -0.006 ± 0.0085 | -0.0095 ± 0.013 | -0.0115 ± 0.019 | -0.0095 ± 0.025 | -0.012 ± 0.023 | -0.019 ± 0.0014 | -0.027 ± 0.0099 | -0.0215 ± 0.023 | -0.0045 ± 0.0078
3C:CD87/uPAR | 0.03 ± 0.0085 | 0.032 ± 0.0085 | 0.052 ± 0.017 | -0.0375 ± 0.0092 | -0.05 ± 0.051 | -0.032 ± 0.041 | 0.021 ± 0.0028 | 0.0045 ± 0.015 | -0.0075 ± 0.0064 | 0.012 ± 0.011 | -0.0005 ± 0.011 | -0.0145 ± 0.0092 | -0.0235 ± 0.036 | -0.022 ± 0.03 | -0.023 ± 0.027 | -0.0065 ± 0.018 | 0.0045 ± 0.023 | 0.011 ± 0.024 | -0.0065 ± 0.016 | -0.199 ± 0.033
3C:CXCL8/IL-8 | -0.002 ± 0.0085 | -0.004 ± 0.0014 | 0.035 ± 0.042 | -0.026 ± 0.018 | -0.0225 ± 0.019 | -0.0025 ± 0.04 | -0.0005 ± 0.0092 | 0.0005 ± 0.052 | 0.0445 ± 0.093 | 0.0145 ± 0.042 | 0.0035 ± 0.025 | 0.041 ± 0.0042 | 0.0025 ± 0.016 | -0.007 ± 0.0042 | 0.012 ± 0.0099 | 0.012 ± 0.0014 | 0.011 ± 0.0071 | 0.013 ± 0.014 | 0.043 ± 0.013 | 0.16 ± 0.0099
3C:Proliferation | -0.013 ± 0.0042 | -0.0055 ± 0.054 | -0.0375 ± 0.035 | -0.0165 ± 0.00071 | 0.005 ± 0.023 | 0.014 ± 0.041 | 0.008 ± 0.023 | 0.0205 ± 0.00071 | -0.0025 ± 0.018 | -0.0265 ± 0.036 | 0.0065 ± 0.067 | -0.0085 ± 0.063 | -0.0385 ± 0.049 | -0.038 ± 0.061 | -0.03 ± 0.031 | -0.0185 ± 0.074 | 0.0405 ± 0.016 | -0.003 ± 0.0042 | 0.009 ± 0.03 | -0.112 ± 0.037
3C:SRB | 0.009 ± 0.0042 | 0.014 ± 0.0085 | 0.018 ± 0.0099 | -0.0045 ± 0.0064 | -0.0025 ± 0.012 | 0.0025 ± 0.021 | -0.02 ± 0.021 | 0.0105 ± 0.0092 | 0.0075 ± 0.0064 | -0.0105 ± 0.047 | -0.008 ± 0.052 | -0.005 ± 0.03 | -0.0075 ± 0.019 | -0.013 ± 0.0014 | -0.019 ± 0.023 | 0.0095 ± 0.012 | 0.01 ± 0.025 | -0.0105 ± 0.0078 | 0.0015 ± 0.022 | -0.233 ± 0.084
4H:CCL2/MCP-1 | 0.03 ± 0.0099 | -0.0175 ± 0.0064 | 0.0125 ± 0.019 | -0.007 ± 0.027 | -0.0215 ± 0.011 | -0.0265 ± 0.021 | -0.0345 ± 0.012 | -0.035 ± 0.0042 | -0.0105 ± 0.026 | -0.013 ± 0.0014 | -0.023 ± 0.0085 | -0.0005 ± 0.019 | -0.0155 ± 0.032 | -0.039 ± 0.031 | 0.029 ± 0.04 | -0.0625 ± 0.021 | -0.0615 ± 0.013 | -0.0125 ± 0.021 | -0.0475 ± 0.0035 | -0.11 ± 0.12
4H:CCL26/Eotaxin-3 | -0.001 ± 0.011 | -0.001 ± 0.0028 | 0.005 ± 0.0057 | 0.0215 ± 0.023 | 0.0385 ± 0.023 | 0.0485 ± 0.032 | 0.06 ± 0.045 | 0.0245 ± 0.059 | 0.041 ± 0.064 | 0.04 ± 0.038 | 0.025 ± 0.069 | 0.012 ± 0.069 | 0.0095 ± 0.037 | 0.0315 ± 0.029 | 0.0275 ± 0.016 | -0.0435 ± 0.012 | -0.0535 ± 0.037 | 0.012 ± 0.014 | -0.066 ± 0.0071 | -0.0725 ± 0.043
4H:CD62P/P-selectin | 0.0055 ± 0.016 | -0.0015 ± 0.019 | 0.013 ± 0.017 | -0.0515 ± 0.06 | -0.058 ± 0.061 | -0.0135 ± 0.053 | -0.0155 ± 0.025 | -0.02 ± 0.0028 | 0.005 ± 0.013 | -0.013 ± 0.0042 | -0.0165 ± 0.032 | -0.0175 ± 0.016 | -0.017 | -0.017 ± 0.031 | 0.0195 ± 0.029 | 0.0165 ± 0.0092 | 0.035 ± 0.031 | 0.0315 ± 0.012 | 0.0485 ± 0.018 | 0.084 ± 0.031
4H:CD87/uPAR | 0.0645 ± 0.044 | 0.0775 ± 0.018 | 0.107 ± 0.022 | 0.0585 ± 0.04 | 0.0055 ± 0.0035 | -0.024 ± 0.025 | -0.0665 ± 0.029 | -0.027 ± 0.035 | -0.047 ± 0.064 | -0.036 ± 0.045 | -0.031 ± 0.023 | -0.065 ± 0.0057 | 0.0335 ± 0.013 | 0.044 ± 0.033 | 0.006 ± 0.038 | -0.0115 ± 0.033 | -0.0295 ± 0.05 | -0.0165 ± 0.054 | -0.023 ± 0.048 | -0.117 ± 0.053
4H:VEGFR2 | -0.0015 ± 0.019 | 0.0235 ± 0.011 | 0.017 ± 0.014 | -0.0075 ± 0.005 | 0.0155 ± 0.063 | 0.0445 ± 0.036 | 0.0065 ± 0.028 | 0.0135 ± 0.023 | -0.009 | 0.012 ± 0.05 | 0.025 ± 0.0057 | 0.0225 ± 0.03 | 0 ± 0.0042 | -0.006 ± 0.0099 | -0.001 ± 0.054 | -0.0245 ± 0.032 | 0.001 ± 0.047 | 0.0185 ± 0.019 | 0.014 ± 0.0085 | 0.0265 ± 0.0078
BE3C:Keratin 8/18 | -0.0045 ± 0.00071 | -0.0115 ± 0.00071 | 0.0015 ± 0.018 | 0.0025 ± 0.0078 | -0.0025 ± 0.00071 | 0.005 ± 0.013 | -0.008 ± 0.0028 | -0.007 ± 0.0014 | 0.006 ± 0.024 | -0.0115 ± 0.005 | -0.0185 ± 0.0092 | 0.0105 ± 0.043 | -0.0045 ± 0.0092 | -0.0025 ± 0.005 | -0.0185 ± 0.033 | -0.0125 ± 0.025 | -0.0805 ± 0.019 | -0.0025 ± 0.0021 | 0.003 ± 0.0028 | -0.106 ± 0.05
BE3C:MMP-1 | 0.022 ± 0.075 | 0.0255 ± 0.061 | 0.0655 ± 0.03 | 0 ± 0.0014 | -0.0085 ± 0.005 | 0.02 ± 0.0099 | -0.0145 ± 0.026 | -0.014 ± 0.011 | 0.0185 ± 0.049 | -0.01 ± 0.0028 | -0.023 ± 0.037 | 0.0305 ± 0.074 | 0.003 ± 0.054 | -0.001 ± 0.0014 | 0.024 ± 0.0057 | 0.068 ± 0.013 | -0.132 ± 0.012 | 0.075 ± 0.03 | 0.27 ± 0.012 | -0.178 ± 0.047
BE3C:PAI-I | -0.003 ± 0.0014 | -0.006 ± 0.0028 | 0.013 ± 0.0099 | -0.018 ± 0.017 | -0.027 ± 0.025 | -0.0085 ± 0.016 | -0.0395 ± 0.00071 | -0.022 ± 0.0057 | -0.0075 ± 0.023 | -0.0145 ± 0.0021 | -0.0295 ± 0.025 | 0 ± 0.059 | 0.0065 ± 0.0064 | -0.0055 ± 0.0035 | 0 ± 0.0028 | -0.082 ± 0.018 | -0.367 ± 0.047 | 0.0265 ± 0.011 | 0.0055 ± 0.019 | -0.416 ± 0.054
BE3C:SRB | 0.008 ± 0.0057 | 0.0025 ± 0.0064 | 0.011 ± 0.018 | 0.002 ± 0.0028 | -0.003 ± 0.0071 | 0.0035 ± 0.00071 | -0.002 ± 0.0057 | -0.004 | 0.003 ± 0.0071 | -0.0005 ± 0.0021 | -0.0055 ± 0.005 | 0.006 ± 0.011 | -0.0035 ± 0.0035 | 0.0005 ± 0.005 | -0.0055 ± 0.0021 | -0.0095 ± 0.0064 | -0.235 ± 0.011 | -0.001 ± 0.0014 | -0.049 ± 0.0057 | -0.659 ± 0.019
